pIC50: −log10 of the molar value. The source made the active and inactive calls. The calls are words filed in the database; no cut-off is given here.
Key:
H69AR [1] = assay: Induction of apoptosis in human NCI-H69AR cells assessed as early apoptotic cells at 10 nM incubated for 24 hrs by AnnexinV-FITC/PI staining based flow cytometry analysis (reference value: 0.35 %); assay type: functional
H69AR [2] = assay: Induction of apoptosis in human NCI-H69AR cells assessed as inhibition of XIAP protein expression at 0.1 to 100 nM incubated for 24 hrs by Western blot analysis; assay type: functional, cell-based; details: dose 0.1-100 nM
SW-620 = assay: Antiproliferative activity against human SW-620 cells assessed as inhibition of cell growth incubated for 72 hrs by SRB assay; assay type: functional, cell-based; details: SW-620, 72 h
NCI-H446 [3] = assay: Antitumor activity against human NCI-H446 cells xenografted in BALB/c nude mouse assessed as reduction in large tumor growth at 3 mg/kg, IG administered for 31 days by electronic caliper method; assay type: functional, organism-based; details: time 31.0 day
NCI-H69 [4] = assay: Antiproliferative activity against human NCI-H69 cells assessed as inhibition of cell growth incubated for 72 hrs by SRB assay; assay type: functional, cell-based; details: NCI-H69, 72 h
NCI-H69 [5] = assay: Induction of apoptosis in human NCI-H69 cells assessed as inhibition of XIAP protein expression at 0.1 to 100 nM incubated for 24 hrs by Western blot analysis; assay type: functional, cell-based; details: dose 0.1-100 nM
H69AR [6] = assay: Induction of apoptosis in human NCI-H69AR cells assessed as early apoptotic cells at 100 nM incubated for 24 hrs by AnnexinV-FITC/PI staining based flow cytometry analysis (reference value: 0.35 %); assay type: functional
H69AR [7] = assay: Induction of apoptosis in human NCI-H69AR cells assessed as inhibition of Mcl-1 protein expression at 0.1 to 100 nM incubated for 24 hrs by Western blot analysis; assay type: functional, cell-based; details: dose 0.1-100 nM
NCI-H446 [8] = assay: Antitumor activity against human NCI-H446 cells xenografted in BALB/c nude mouse assessed as tumor growth inhibition at 0.75 mg/kg, IG administered once a week for 28 days by electronic caliper method relative to control; assay type: functional; details: NCI-H446, po, 672 h, time 28 day, read-out: TGI
NCI-H69 [9] = assay: Induction of apoptosis in human NCI-H69 cells assessed as increase in cleaved-caspase 3 protein expression at 0.1 to 100 nM measured after 24 hrs by Western blot analysis; assay type: functional, cell-based; details: dose 0.1-100 nM
NCI-H69 [10] = assay: Induction of apoptosis in human NCI-H69 cells assessed as reduction in XIAP mRNA expression at 0.1 to 100 nM incubated for 24 hrs by RT-PCR analysis; assay type: functional, cell-based; details: dose 0.1-100 nM
Mus musculus = assay: Downregulation of survivin protein expression in tumor of BALB/c mouse xenografted with human NCI-H446 cells at 0.75 mg/kg, IG administered intragastrically once a week for 28 days by western blot analysis; assay type: functional, organism-based; details: time 28.0 day
NCI-H446 [11] = assay: Induction of apoptosis in human NCI-H446 cells assessed as late apoptotic cells at 10 nM incubated for 24 hrs by AnnexinV-FITC/PI staining based flow cytometry analysis (reference value: 0.37 %); assay type: functional
NCI-H69 [12] = assay: Induction of apoptosis in human NCI-H69 cells assessed as inhibition of survivin protein expression at 0.1 to 100 nM incubated for 24 hrs by Western blot analysis; assay type: functional, cell-based; details: dose 0.1-100 nM
H69AR [13] = assay: Induction of apoptosis in human NCI-H69AR cells assessed as late apoptotic cells at 10 nM incubated for 24 hrs by AnnexinV-FITC/PI staining based flow cytometry analysis (reference value: 2.99 %); assay type: functional
NCI-H446 [14] = assay: Induction of apoptosis in human NCI-H446 cells assessed as dead cells at 10 nM incubated for 24 hrs by AnnexinV-FITC/PI staining based flow cytometry analysis (reference value: 0.22 %); assay type: functional
NCI-H446 [15] = assay: Antitumor activity against Irinotecan-resistant human NCI-H446 cells xenografted in BALB/c nude mouse assessed as tumor weight at 3 mg/kg, IG administered once a week and measured 3 times a week for 35 days; assay type: functional; details: time 35 day
NCI-H446 [16] = assay: Antitumor activity against human NCI-H446 cells xenografted in BALB/c nude mouse assessed as tumor growth inhibition at 1.5 mg/kg, IG administered once a week for 28 days by electronic caliper method relative to control; assay type: functional; details: NCI-H446, po, 672 h, time 28 day, read-out: TGI
NCI-H446 [17] = assay: Induction of apoptosis in human NCI-H446 cells assessed as reduction in Bcl-2 mRNA level at 0.1 to 100 nM incubated for 24 hrs by RT-PCR analysis; assay type: functional, cell-based; details: dose 0.1-100 nM
H69AR [18] = assay: Induction of apoptosis in human NCI-H69AR cells assessed as reduction in Mcl-1 mRNA expression at 0.1 to 100 nM incubated for 24 hrs by RT-PCR analysis; assay type: functional, cell-based; details: dose 0.1-100 nM
NCI-H69 [19] = assay: Induction of apoptosis in human NCI-H69 cells assessed as reduction in Bcl-2 mRNA expression at 0.1 to 100 nM incubated for 24 hrs by RT-PCR analysis; assay type: functional, cell-based; details: dose 0.1-100 nM
H69AR [20] = assay: Induction of apoptosis in human NCI-H69AR cells assessed as dead cells at 1 nM incubated for 24 hrs by AnnexinV-FITC/PI staining based flow cytometry analysis (reference value: 1.92 %); assay type: functional
H69AR [21] = assay: Induction of apoptosis in human NCI-H69AR cells assessed as inhibition of Bcl-2 protein expression at 0.1 to 100 nM incubated for 24 hrs by Western blot analysis; assay type: functional, cell-based; details: dose 0.1-100 nM
[22] = Toxicity in BALB/c nude mouse xenografted with human NCI-H446 cells assessed as reduction in body weight at high dose administered intragastrically once a week for 28 days and measured three times a week; details: in vivo, po, 672 h, route ig, time 28 day
2008 = assay: Antiproliferative activity against human 2008 cells assessed as inhibition of cell growth incubated for 72 hrs by SRB assay; assay type: functional, cell-based; details: Homo sapiens, 2008, 72 h
NCI-H446 [23] = assay: Induction of apoptosis in human NCI-H446 cells assessed as dead cells at 0.1 nM incubated for 24 hrs by AnnexinV-FITC/PI staining based flow cytometry analysis (reference value: 0.22 %); assay type: functional
H69AR [24] = assay: Antiproliferative activity against human NCI-H69AR cells assessed as inhibition of cell growth incubated for 72 hrs by SRB assay; assay type: functional, cell-based
NCI-H446 [25] = assay: Induction of apoptosis in human NCI-H446 cells assessed as dead cells at 1 nM incubated for 24 hrs by AnnexinV-FITC/PI staining based flow cytometry analysis (reference value: 0.22 %); assay type: functional
NCI-H446 [26] = assay: Antitumor activity against human NCI-H446 cells xenografted in BALB/c nude mouse assessed as tumor growth inhibition at 3 mg/kg, IG administered once a week for 28 days by electronic caliper method relative to control; assay type: functional; details: NCI-H446, po, 672 h, time 28 day, read-out: TGI
SH-SY5Y = assay: Antiproliferative activity against human SH-SY5Y cells assessed as inhibition of cell growth incubated for 72 hrs by SRB assay; assay type: functional, cell-based
H69AR [27] = assay: Induction of apoptosis in human NCI-H69AR cells assessed as early apoptotic cells at 1 nM incubated for 24 hrs by AnnexinV-FITC/PI staining based flow cytometry analysis (reference value: 0.35 %); assay type: functional
NCI-H446 [28] = assay: Antiproliferative activity against Irinotecan-resistant human NCI-H446 cells assessed as inhibition of cell growth incubated for 72 hrs by SRB assay; assay type: functional, cell-based; details: NCI-H446, 72 h
H69AR [29] = assay: Induction of apoptosis in human NCI-H69AR cells assessed as dead cells at 10 nM incubated for 24 hrs by AnnexinV-FITC/PI staining based flow cytometry analysis (reference value: 1.92 %); assay type: functional

CC[C@@]1(O)C(=O)OCc2c1cc1n(c2=O)Cc2c-1nc1cc3c(cc1c2-c1ccoc1)OCO3
Activity (H69AR [1]): 0.57%
inhibition (H69AR [2]): Active
pIC50 (SW-620): 9.96
Activity (NCI-H446 [3]): Active
pIC50 (NCI-H69 [4]): 7.84
inhibition (NCI-H69 [5]): Active
Activity (H69AR [6]): 1.73%
inhibition (H69AR [7]): Active
inhibition in vivo at 0.75 mg/kg (NCI-H446 [8]): 40.4%
Activity (NCI-H69 [9]): Active
Activity (NCI-H69 [10]): Active
Activity (Mus musculus): Active
Activity (NCI-H446 [11]): 6.25%
inhibition (NCI-H69 [12]): Active
Activity (H69AR [13]): 12.48%
Activity (NCI-H446 [14]): 2.78%
Activity (NCI-H446 [15]): 0.15 g
inhibition in vivo at 1.5 mg/kg (NCI-H446 [16]): 73.7%
Activity (NCI-H446 [17]): Active
Activity (H69AR [18]): Active
Activity (NCI-H69 [19]): Active
Activity (H69AR [20]): 2.61%
inhibition (H69AR [21]): Active
Activity [22]: Toxic
pIC50 2008: 7.99
Activity (NCI-H446 [23]): 0.91%
pIC50 (H69AR [24]): 8.25
Activity (NCI-H446 [25]): 3.79%
inhibition in vivo at 3 mg/kg (NCI-H446 [26]): 95.5%
pIC50 (SH-SY5Y): 8.10
Activity (H69AR [27]): 0.62%
pIC50 (NCI-H446 [28]): 9.30
Activity (H69AR [29]): 1.82%

Source: ChEMBL document CHEMBL5108002, “Design, synthesis, and biological evaluation of novel 7-substituted 10,11-methylenedioxy-camptothecin derivatives against drug-resistant small-cell lung cancer in vitro and in vivo” (Eur J Med Chem, 2022)
